Assays:
Assay type in all cases: cell-based
Rat P2X3 receptor = Rat P2X3 receptor (Rattus norvegicus (Rat), UniProt P49654); assay: Evaluation of rat P2X3 receptor inhibitory activity in the presence of rat serum albumin (RSA) (Test Example 3-2); conditions: rat P2X3 receptor in C6BU-1 cells
Method: Rat P2X3 receptor gene (GenBank accession number NM_031075) was expressed in C6BU-1 cell. The C6BU-1 cells were seeded in a 96-well microtiter plate at a concentration of 2500 cells/well and cultured in the medium (7.0% fetal bovine serum, 7.0% horse serum, and 1% antibiotic and antifungal in DMEM) for one day at 37° C. under 5% carbon dioxide atmosphere. The plasmid was transfected into the cells using transfection reagent FuGENEG (Roche). The transfected cells were cultured in the medium for one day at 37° C. under 5% carbon dioxide atmosphere. The medium was replaced with 4 μM Fluo-3-AM solution (pH7.5) containing 20 mM HEPES, […], 5.27 mM KCl, 0.9 mM MgCl2, 1.26 mM CaCl2, 5.6 mM D-glucose, 2.5 mM probenecid, 1% BSA, and 0.08% Pluronic F-127, and incubated at 37° C. under 5% dioxide carbon atmosphere for one hour. The plate was washed with washing buffer (20 mM HEPES, 137 mM NaCl, 5.27 mM KCl, 0.9 mM MgCl2, 1.26 mM CaCl2, 5.6 mM D-glucose, 2.5 mM probenecid, pH7.5), and each well was added with 40 μL of this buffer. The plate was placed in High-Throughput Screening System FDSS 3000 (Hamamatsu Photonics K.K.). Measurement of fluorescence intensity by FDSS 3000 was started, and 40 μL of DMSO solutions containing 1% RSA (final concentrations) and different concentrations of the test compound as prepared by dilution with dilution buffer (20 mM HEPES, 137 mM NaCl, 5.27 mM KCl, 0.9 mM MgCl2, 1.26 mM CaCl2, 5.6 mM D-glucose, 2.5 mM probenecid, 0.1% Pluronic F-127, pH7.5) were dispensed to each well through the built-in automatic dispenser. Five minutes after, 50 nM ATP solution (50 μL) prepared by dilution with the dilution buffer was dispensed through the built-in automatic dispenser, and the measurement of fluorescence intensity was continued for 4 min. For each well, the specific maximum fluorescence intensity was calculated as the ratio of the maximum fluorescence intensity after addition of the ATP solution to the fluorescence intensity at the starting of the measurement. The 50% inhibitory concentration (IC50) was calculated under the assumption that the specific maximum fluorescence intensity without test compound is 0% inhibition and that the specific maximum fluorescence intensity when the dilution buffer was added in place of ATP solution is 100% inhibition, to evaluate the inhibitory activity of the test compound. FDSS software (Hamamatsu Photonics K.K.) was used for calculation of the specific maximum fluorescence intensity. IC50 was calculated using Microsoft Excel (Microsoft Corporation) and XLfit (idbs Ltd.).

human P2X3 receptor [1] = target: T1, human P2X3 receptor (Homo sapiens (Human), UniProt P56373); assay: Evaluation of human P2X3 receptor inhibitory activity (Test Example 1-1, FDSS 3000, 96-well, 50 nM ATP); conditions: human P2X3 receptor in C6BU-1 cells; Test Example 1-1 (compounds I-001 to I-300)
Method in brief: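 C6BU-1 cells stably expressing human P2X3, loaded with 4 μM Fluo-3-AM (pH 7.5), preincubated 5 min with compound before 50 nM ATP challenge; fluorescence followed 4 min on FDSS 3000. IC50 derived from peak/baseline fluorescence ratio, no-compound as 0% and buffer-instead-of-ATP as 100% inhibition.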

human P2X3 receptor [2] = target: T1, human P2X3 receptor; assay: Evaluation of human P2X3 receptor inhibitory activity (Test Example 1-2, FLIPR 384, 384-well, 150 nM ATP)
Method in brief: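 Human P2X3 stably expressed in C6BU-1 cells, Fluo-3-AM loaded, read on FLIPR at pH 7.5 HEPES buffer. Compound added 5 min before 150 nM ATP; peak/baseline fluorescence over 4 min gave inhibition (buffer instead of ATP = 100%), from which IC50 was derived.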

[3] = human P2X3 receptor in C6BU-1 cells, Test Example 1-2 (compounds I-301 to I-483), read-out: P2X3 IC50
[4] = C6BU-1 cell transfected with human P2X3 receptor gene, method of Test Example 1-2 (compounds I-301 to I-483), read-out: IC50 (human P2X3 receptor inhibitory activity)

Rat P2X3 receptor, sequence (P49654 whole entry): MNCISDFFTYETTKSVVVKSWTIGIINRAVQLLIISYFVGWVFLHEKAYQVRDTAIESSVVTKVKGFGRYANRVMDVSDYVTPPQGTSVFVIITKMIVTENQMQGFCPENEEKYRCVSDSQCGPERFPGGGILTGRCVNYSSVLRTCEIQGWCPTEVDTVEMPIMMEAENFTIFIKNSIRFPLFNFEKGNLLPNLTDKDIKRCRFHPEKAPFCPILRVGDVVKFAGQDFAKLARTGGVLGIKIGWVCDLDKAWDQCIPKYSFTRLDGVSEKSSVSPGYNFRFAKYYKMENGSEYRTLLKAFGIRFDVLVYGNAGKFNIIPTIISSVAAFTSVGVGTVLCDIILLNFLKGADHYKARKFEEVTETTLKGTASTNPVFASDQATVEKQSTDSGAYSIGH
T1 sequence (P56373 whole entry): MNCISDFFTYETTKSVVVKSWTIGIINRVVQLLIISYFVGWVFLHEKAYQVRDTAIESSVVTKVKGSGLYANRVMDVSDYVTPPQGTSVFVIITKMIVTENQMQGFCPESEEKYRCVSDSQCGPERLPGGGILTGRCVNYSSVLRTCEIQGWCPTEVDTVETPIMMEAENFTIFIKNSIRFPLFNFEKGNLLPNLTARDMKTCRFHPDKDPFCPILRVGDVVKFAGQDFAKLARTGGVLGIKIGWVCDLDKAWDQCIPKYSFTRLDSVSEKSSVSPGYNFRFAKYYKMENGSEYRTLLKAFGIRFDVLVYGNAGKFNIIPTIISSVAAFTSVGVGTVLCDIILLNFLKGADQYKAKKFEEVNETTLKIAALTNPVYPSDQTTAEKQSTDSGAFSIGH

IC50 (human P2X3 receptor [2]; [4])	SMILES	IC50 (Rat P2X3 receptor)	IC50 (human P2X3 receptor [1])	IC50 (human P2X3 receptor [2]; [3])
	Cc1ccc(Oc2ccc(Nc3nc(=O)c(C(=O)NC4CCOCC4)cn3Cc3ccc(Cl)cc3)cc2)nn1 [Compound I-159]	23 nM	7 nM	
	Cc1cc(/N=c2\[nH]cc(NC(=O)C3CCOCC3)c(=O)n2Cc2ccc(Cl)cc2)ccc1Oc1ncccc1F [Compound I-162]	13 nM	3 nM	
	CCCn1c(=O)cc(Nc2ccc(Oc3cccc(C(=O)O)n3)cc2)n(Cc2ccc(Cl)cc2)c1=O [Compound I-165]	17 nM	3 nM	
	O=c1c(NC(=O)[C@H]2C[C@H](O)C2)c[nH]/c(=N\c2ccc(Oc3ccc(F)cn3)cc2)n1Cc1ccc(Cl)cc1 [Compound I-215]	5 nM	4 nM	
	N#Cc1cnc(Oc2ccc(Nc3nc(=O)c(C(=O)NC4CCOCC4)cn3Cc3ccc(Cl)cc3)cc2)cn1 [Compound I-230]	10 nM	9 nM	
	Cc1cc(Oc2ccc(/N=c3\[nH]cc(NC(=O)C4CCOCC4)c(=O)n3Cc3ccc(Cl)cc3)cc2C)no1 [Compound I-304]	12 nM		12 nM
	Cc1ccc(Oc2ccc(/N=c3\[nH]cc(NC(=O)[C@H]4C[C@H](O)C4)c(=O)n3Cc3ccc(Cl)cc3)cc2)nn1 [Compound I-308]	5 nM		5 nM
	CCC(=O)Nc1c[nH]/c(=N\c2ccc(Oc3ccc(C(N)=O)nn3)cc2)n(Cc2ccc(Cl)cc2)c1=O [Compound I-309]	22 nM		9 nM
	Cc1noc(-c2c[nH]/c(=N\c3ccc(Oc4cccc(C(=O)O)n4)cc3)n(Cc3ccc(Cl)cc3)c2=O)n1 [Compound I-313]	24 nM		5 nM
	Cc1nc(Nc2cc(=O)n([C@@H](C)[C@@H](C)C(=O)O)c(=O)n2Cc2ccc(Cl)cc2)ccc1Oc1ccc(F)nc1 [Compound I-339]	12 nM		9 nM
	O=C(O)c1cc(Oc2ccc(/N=c3\[nH]cc(Nc4ccon4)c(=O)n3Cc3ccc(Cl)cc3)cc2)ccn1 [Compound I-354]	14 nM		7 nM
	COC(=O)c1cccc(Oc2ccc(/N=c3\[nH]cc(C4CCOCC4)c(=O)n3Cc3ccc(Cl)cc3)cc2)n1 [Compound I-476]			66 nM
	CC(C)(C)c1c[nH]/c(=N\c2ccc(Oc3cccc(C(=O)O)n3)cc2)n(Cc2ccc(Cl)cc2)c1=O [Compound I-477]			5 nM
	O=C(O)c1cccc(Oc2ccc(/N=c3\[nH]cc(C4CCOCC4)c(=O)n3Cc3ccc(Cl)cc3)cc2)n1 [Compound I-478]			5 nM
< 30000 nM	CSc1ncc(Nc2ccc(Oc3ccc(F)cn3)cc2)c(Cc2ccc(F)cc2)n1 [Compound I-479]			
	O=C(O)c1cccc(Oc2ccc(/N=c3\[nH]cc(-c4ccccn4)c(=O)n3Cc3ccc(Cl)cc3)cc2)n1 [Compound I-480]			7 nM
< 30000 nM	CN(C)c1ncc(Nc2ccc(Oc3ccc(F)cn3)cc2)c(Cc2ccc(F)cc2)n1 [Compound I-481, 2-dimethylamino-4-(4-fluorobenzyl)-5-[4-(5-fluoro-2-pyridyloxy)phenylamino]pyrimidine]			
	CC(C)(C)c1c[nH]/c(=N\c2ccc(Oc3cccc(C(N)=O)n3)cc2)n(Cc2ccc(Cl)cc2)c1=O [Compound I-482]			251 nM
	NC(=O)c1cccc(Oc2ccc(/N=c3\[nH]cc(C4CCOCC4)c(=O)n3Cc3ccc(Cl)cc3)cc2)n1 [Compound I-483]			17 nM
